Drawing on the Kinase Knowledgebase extract (Sharma et al. 2016), this text covers IC50 for 98 compounds.

Structures are written as SMILES. Several values for one entry are separate records, joined by “and”; a condition that tells them apart may be missing. Equal values may be shown once.

In the experiment the target is EGFR (UniProt P00533). In words: Inhibition of EGFR Kinase Activity.
Chain of EGFR (P00533 whole entry, looked up): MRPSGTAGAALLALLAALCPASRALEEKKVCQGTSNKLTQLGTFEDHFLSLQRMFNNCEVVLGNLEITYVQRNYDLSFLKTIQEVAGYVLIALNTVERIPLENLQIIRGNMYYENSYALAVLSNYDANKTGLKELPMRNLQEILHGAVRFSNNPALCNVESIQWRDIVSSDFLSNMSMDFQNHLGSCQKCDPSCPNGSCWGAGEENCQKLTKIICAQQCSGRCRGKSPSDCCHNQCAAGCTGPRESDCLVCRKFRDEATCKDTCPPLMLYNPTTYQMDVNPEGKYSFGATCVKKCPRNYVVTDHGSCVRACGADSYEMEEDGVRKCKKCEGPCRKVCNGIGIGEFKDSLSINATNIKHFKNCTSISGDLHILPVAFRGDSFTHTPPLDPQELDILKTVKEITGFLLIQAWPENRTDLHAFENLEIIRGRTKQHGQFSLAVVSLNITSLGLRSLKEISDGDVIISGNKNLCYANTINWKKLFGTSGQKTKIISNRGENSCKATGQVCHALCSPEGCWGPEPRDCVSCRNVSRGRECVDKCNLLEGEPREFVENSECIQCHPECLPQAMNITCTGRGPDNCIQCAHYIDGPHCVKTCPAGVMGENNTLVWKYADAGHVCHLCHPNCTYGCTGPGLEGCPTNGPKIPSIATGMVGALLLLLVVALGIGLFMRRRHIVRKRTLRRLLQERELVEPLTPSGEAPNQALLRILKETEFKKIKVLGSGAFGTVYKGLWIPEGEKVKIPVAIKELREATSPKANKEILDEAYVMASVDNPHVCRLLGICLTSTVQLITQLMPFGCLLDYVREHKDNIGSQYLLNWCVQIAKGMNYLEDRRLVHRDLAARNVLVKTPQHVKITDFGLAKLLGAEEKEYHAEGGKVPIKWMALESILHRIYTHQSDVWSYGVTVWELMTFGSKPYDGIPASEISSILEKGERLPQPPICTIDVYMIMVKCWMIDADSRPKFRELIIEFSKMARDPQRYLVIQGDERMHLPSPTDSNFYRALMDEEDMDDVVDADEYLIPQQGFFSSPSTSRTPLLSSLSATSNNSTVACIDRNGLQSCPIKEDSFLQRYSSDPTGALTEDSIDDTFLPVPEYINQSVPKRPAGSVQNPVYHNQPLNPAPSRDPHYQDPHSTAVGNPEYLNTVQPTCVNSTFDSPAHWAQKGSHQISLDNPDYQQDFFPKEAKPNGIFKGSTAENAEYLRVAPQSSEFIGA
As for `Nc1cc2ncnc(Nc3ccccc3)c2cn1`, the IC50 turned out to be 251 nM.
In the case of `CN(C)c1ccc2ncnc(Nc3cccc(Br)c3)c2c1`, the IC50 was found to be 85 nM.
Compound `Nc1ncc2ncnc(Nc3cccc(Br)c3)c2n1` gave an IC50 of 1.5 nM.
Then `Brc1cccc(NC2=NC=NC3=CC=N(NCCN4CCOCC4)C=C23)c1`, with 3.2 nM; and `COc1ccc(Nc2ncnc3cc(N)ncc23)cc1`, with 670 nM.
Then `Ic1cccc(Nc2ncnc3ccccc23)c1`, with 81 nM.
Regarding `COc1cc2ncnc(Nc3cccc(I)c3)c2cc1OC`, the half-inhibitory concentration (IC50) is 0.89 nM.
Turning to `CN(C)CCCCNN1=CC=C2N=CN=C(Nc3cccc(C)c3)C2=C1`, the IC50 turned out to be 5.4 nM.
As to `Nc1ccc2c(Nc3ccccc3)ncnc2c1`, the IC50 worked out at 100 nM.
Then `Oc1cc2ncnc(Nc3cccc(Br)c3)c2cc1O`, with 0.17 nM; and `Cc1cccc(Nc2ncnc3cnc(NCCN4CCOCC4)nc23)c1`, with 2.3 nM; and `COc1cc2c(Nc3cccc(Br)c3)ncnc2cn1`, with 2.6 nM.
Next, `FC(F)(F)c1cccc(Nc2ncnc3ccccc23)c1`: 588 nM; `CCOc1cc2ncnc(Nc3cccc(Br)c3)c2cc1OCC`: 0.006 nM.
Then `CN(CC(=O)O)N1=CC=C2N=CN=C(Nc3cccc(Br)c3)C2=C1`, with 16 nM; and `COc1ccc2ncnc(Nc3cccc(Br)c3)c2c1`, with 354 nM.
`CN(C)c1cc2ncnc(Nc3cccc(Br)c3)c2cc1N` displayed a half-maximal inhibitory concentration (IC50) of 160 nM.
`Clc1cccc(Nc2ncnc3ccccc23)c1` yielded an IC50 of 23.4 nM.
`CN(C)CCCCCNN1=CC=C2N=CN=C(Nc3cccc(Br)c3)C2=C1` had an IC50 of 8.5 nM.
Compound `CN(C)CCN(C)N1=CC=C2N=CN=C(Nc3cccc(Br)c3)C2=C1` displayed an IC50 of 40 nM.
`CN(C)c1cccc(Nc2ncnc3cc(N)ncc23)c1` displayed an IC50 of 1810 nM.
Regarding `NNN1=CC=C2N=CN=C(Nc3cccc(Br)c3)C2=C1`, the IC50 was found to be 7.2 nM.
Then `Nc1cc2ncnc(Nc3ccccc3N)c2cn1`, with 5370 nM; and `Nc1cc2ncnc(Nc3cccc(Br)c3)c2cc1N`, with 0.12 nM; and `CN1CCN(CCCNN2=CC=C3N=CN=C(Nc4cccc(Br)c4)C3=C2)CC1`, with 5 nM.
As for `CN(C)c1ccc2c(Nc3cccc(Br)c3)ncnc2n1`, the IC50 amounted to 330 nM.
For the compound `COc1ncc2ncnc(Nc3cccc(Br)c3)c2n1`, the IC50 worked out at 3.8 nM.
With `Cc1cccc(Nc2ncnc3cnc(N)nc23)c1`, the 50% inhibitory concentration (IC50) was 17 nM.
Next, `COc1cc2ncnc(Nc3ccc(Br)cc3)c2cc1OC`: 0.97 nM; `COc1cc2ncnc(Nc3cccc(Br)c3)c2cn1`: 39 nM.
Turning to `Brc1cccc(Nc2ncnc3ccccc23)c1`, the IC50 is 27.5 nM.
Take `CNc1ccc2ncnc(Nc3cccc(Br)c3)c2n1`: the IC50 is 3.1 nM.
As for `Brc1cccc(Nc2ncnc3cnc(NCCn4ccnc4)nc23)c1`, the IC50 came to 2.3 nM.
Consider `Nc1cc2ncnc(Nc3cccc(F)c3)c2cn1`, for which the IC50 is 850 nM.
As for `Nc1ccc2ncnc(Nc3cccc(C(F)(F)F)c3)c2c1`, the IC50 was 575 nM.
`Nc1cc2c(Nc3cccc(Br)c3)ncnc2cc1Cl` had an IC50 of 6.6 nM.
Then `CC(=O)Nc1cc2ncnc(Nc3cccc(Br)c3)c2cn1`, with 29 nM; and `Brc1cccc(Nc2ncnc3cnc(NCCN4CCOCC4)nc23)c1`, with 0.8 nM; and `OCCNN1=CC=C2N=CN=C(Nc3cccc(Br)c3)C2=C1`, with 0.2 nM.
Next, `Brc1cccc(NC2=NC=NC3=CC=N(NCCCN4CCOCC4)C=C23)c1`: 1.9 nM; `Nc1cc2ncnc(Nc3cccc(O)c3)c2cn1`: 70 nM; `Nc1ccc2ncnc(Nc3ccccc3)c2c1`: 776 nM.
`Cc1cccc(Nc2ncnc3ccccc23)c1` came in with an IC50 of 912 nM.
Compound `OC(=O)CCNN1=CC=C2N=CN=C(Nc3cccc(Br)c3)C2=C1` displayed an IC50 of 0.6 nM.
Next, `CN(CCO)N1=CC=C2N=CN=C(Nc3cccc(Br)c3)C2=C1`: 2.6 nM.
As to `Brc1cccc(NC2=NC=NC3=CC=N(NCCCn4ccnc4)C=C23)c1`, the IC50 was found to be 0.5 nM.
`Nc1cc2ncnc(Nc3ccc(C(F)(F)F)cc3)c2cn1`: the IC50 was 4780 nM.
Then `OC(=O)CCCNN1=CC=C2N=CN=C(Nc3cccc(Br)c3)C2=C1`, with 0.2 nM; and `COc1ccc2c(Nc3cccc(Br)c3)ncnc2c1`, with 10 nM.
Regarding `OCC(O)CNN1=CC=C2N=CN=C(Nc3cccc(Br)c3)C2=C1`, the IC50 worked out at 0.9 nM.
Compound `OS(=O)(=O)CCNN1=CC=C2N=CN=C(Nc3cccc(Br)c3)C2=C1` came in with a 50% inhibitory concentration (IC50) of 1.4 nM.
Next, `COc1cc2ncnc(Nc3ccccc3)c2cc1OC`: 29 nM; `O=[N+]([O-])c1ccc2c(Nc3cccc(Br)c3)ncnc2c1`: 1000 nM.
On to `CN(C)c1ccc(Nc2ncnc3cc(N)ncc23)cc1`, for which the IC50 came out at 4890 nM.
Then `Oc1ccc2c(Nc3cccc(Br)c3)ncnc2c1`, with 4.7 nM.
Next, `COc1cc2ncnc(Nc3cccc(Br)c3)c2cc1N`: 3.8 nM.
In turn, `Nc1cc2ncnc(Nc3cccc(Br)c3)c2cn1` registered an IC50 of 10 nM.
For the compound `COc1cc2ncnc(Nc3cccc(C(F)(F)F)c3)c2cc1OC`, the IC50 stood at 0.24 nM.
Then `CN1CCN(CCCNN2=CC=C3N=CN=C(Nc4cccc(C)c4)C3=C2)CC1`, with 5.6 nM; and `OCCN(CCO)CCCNN1=CC=C2N=CN=C(Nc3cccc(Br)c3)C2=C1`, with 1.2 nM.
Then `CN(C)c1ccc2ncnc(Nc3cccc(Br)c3)c2n1`, with 9.7 nM.
On to `COc1ccc2c(Nc3cccc(Br)c3)ncnc2n1`, for which the IC50 stood at 260 nM.
Then `Cc1cccc(Nc2ncnc3cnc(Cl)nc23)c1`, with 380 nM; and `CNc1ccc2ncnc(Nc3cccc(Br)c3)c2c1`, with 4 nM.
`CC(=O)Nc1ccc2c(Nc3cccc(Br)c3)ncnc2c1`: the IC50 was 40 nM.
Next, `Cc1cccc(Nc2ncnc3cnc(NCCc4c[nH]cn4)nc23)c1`: 3 nM.
`CNc1ncc2ncnc(Nc3cccc(Br)c3)c2n1` came in with an IC50 of 0.7 nM.
As to `CNc1ncc2ncnc(Nc3ccccc3)c2n1`, the IC50 is 13 nM.
Then `Brc1cccc(NC2=NC=NC3=CC=N(NCCCCN4CCOCC4)C=C23)c1`, with 5.4 nM; and `OCN(CO)N1=CC=C2N=CN=C(Nc3cccc(Br)c3)C2=C1`, with 14 nM.
In the case of `OCCN(CCO)N1=CC=C2N=CN=C(Nc3cccc(Br)c3)C2=C1`, the IC50 stood at 12 nM.
As to `Clc1cc2c(Nc3cccc(Br)c3)ncnc2cn1`, the 50% inhibitory concentration (IC50) turned out to be 40 nM.
Then `O=[N+]([O-])c1ccc2c(Nc3cccc(I)c3)ncnc2c1`, with 549 nM; and `Nc1ccc2ncnc(Nc3cccc(Br)c3)c2n1`, with 7.7 nM.
Turning to `CNc1cc2ncnc(Nc3cccc(Br)c3)c2cc1[N+](=O)[O-]`, the concentration for half-maximal inhibition (IC50) worked out at 69 nM.
For `CN(C)CCCCNN1=CC=C2N=CN=C(Nc3cccc(Br)c3)C2=C1`, the IC50 is 7.4 nM.
Next, `O=[N+]([O-])c1ccc2c(Nc3cccc(Cl)c3)ncnc2c1`: 812 nM; `CN(C)c1ccc2c(Nc3cccc(Br)c3)ncnc2c1`: 11 nM.
Next, `O=[N+]([O-])c1cc2c(Nc3cccc(Br)c3)ncnc2cc1Cl`: 25 nM; `Brc1cccc(Nc2ncnc3cnc(NCCc4c[nH]cn4)nc23)c1`: 0.2 nM.
Then `Fc1cc2c(Nc3cccc(Br)c3)ncnc2cn1`, with 125 nM; and `Fc1cccc(Nc2ncnc3ccccc23)c1`, with 56 nM; and `COc1cc2ncnc(Nc3cccc(Br)c3)c2cc1[N+](=O)[O-]`, with 15 nM.
Compound `Fc1cc2ncnc(Nc3cccc(Br)c3)c2cn1` registered an IC50 of 13 nM.
In turn, `CN(CC(O)CO)N1=CC=C2N=CN=C(Nc3cccc(Br)c3)C2=C1` yielded an IC50 of 3.2 nM.
On to `OC(=O)CNN1=CC=C2N=CN=C(Nc3cccc(Br)c3)C2=C1`, for which the IC50 amounted to 1.5 nM.
Next, `Cc1cccc(NC2=NC=NC3=CC=N(NCCCn4ccnc4)C=C23)c1`: 3.5 nM.
Then `CN(C)CCNN1=CC=C2N=CN=C(Nc3cccc(Br)c3)C2=C1`, with 45 nM.
Then `Clc1ncc2ncnc(Nc3cccc(Br)c3)c2n1`, with 83 nM; and `CNc1cc2ncnc(Nc3cccc(Br)c3)c2cc1N`, with 0.69 nM; and `CN(C)CCCNN1=CC=C2N=CN=C(Nc3cccc(Br)c3)C2=C1`, with 8.9 nM.
For the compound `COc1ccccc1Nc1ncnc2cc(N)ncc12`, the IC50 stood at 3710 nM.
In turn, `CCCOc1cc2ncnc(Nc3cccc(Br)c3)c2cc1OCCC` returned an IC50 of 0.17 nM.
Next, `Cc1cccc(Nc2ncnc3cnc(N(C)C)nc23)c1`: 4 nM; `Nc1cc2ncnc(Nc3ccccc3Br)c2cn1`: 245 nM; `O=[N+]([O-])c1ccc2ncnc(Nc3cccc(Br)c3)c2c1`: 912 nM.
Next, `COc1ccc2ncnc(Nc3ccccc3)c2c1`: 56 nM and 120 nM; `Brc1cccc(NC2=NC=NC3=CC=N(NCCc4c[nH]cn4)C=C23)c1`: 0.9 nM.

The term IC50 denotes the point on the concentration scale where inhibition reaches its midpoint.
